Source: US20070259914A1, “Novel Piperidine Derivates as Modulators of Chemokine Receptor Ccr5” (priority 2004, published 2007)

Molecular target: recombinant human CCR5 receptor (Homo sapiens, UniProt P51681)
Assay: MIP-1α radioligand binding assay (scintillation proximity, CHO cell membranes)
Conditions: displacement of 0.1 nM iodinated MIP-1α from membranes of Chinese hamster ovary cells expressing recombinant human CCR5; average if tested more than once
Experimental: The ability of compounds to inhibit the binding of MIP-1α was assessed by an in vitro radioligand binding assay. Membranes were prepared from Chinese hamster ovary cells which expressed the recombinant human CCR5 receptor. These membranes were incubated with 0.1 nM iodinated MIP-1α, scintillation proximity beads and various concentrations of the compounds of the invention in 96-well plates. The amount of iodinated MIP-1α bound to the receptor was determined by scintillation counting.
In Table II the results are presented as Pic50 values. […] If a as tested more than once then the data below is an average of the probative tests

recombinant human CCR5 receptor, sequence (P51681 whole entry): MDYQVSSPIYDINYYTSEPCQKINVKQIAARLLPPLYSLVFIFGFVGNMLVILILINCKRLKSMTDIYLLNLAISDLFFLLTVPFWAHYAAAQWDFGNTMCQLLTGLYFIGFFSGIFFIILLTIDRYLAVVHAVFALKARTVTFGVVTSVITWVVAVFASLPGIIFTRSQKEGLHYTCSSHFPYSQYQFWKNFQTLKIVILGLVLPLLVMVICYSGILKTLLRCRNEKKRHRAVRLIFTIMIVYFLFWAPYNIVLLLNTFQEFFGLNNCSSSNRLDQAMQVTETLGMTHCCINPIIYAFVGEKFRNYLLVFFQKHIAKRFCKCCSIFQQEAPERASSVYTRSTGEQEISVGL

Compound	IC50 [nM]
CCN(C(=O)Cc1ccc(S(C)(=O)=O)cc1)C1CCN(CC[C@@H](c2cc(F)cc(F)c2)C2CCN(S(C)(=O)=O)CC2)CC1 [Compound 1, N-(1-{(3R)-3-(3,5-difluorophenyl)-3-[1-(methylsulfonyl)piperidin-4-yl]propyl}piperidin-4-yl)-N-ethyl-2-[4-(methylsulfonyl)phenyl]-acetamide]	0.316
CCN(C(=O)NCc1ccc(S(C)(=O)=O)cc1)C1CCN(CC[C@@H](c2cc(F)cc(F)c2)C2CCN(S(C)(=O)=O)CC2)CC1 [Compound 2]	0.501
CCN(C(=O)Cc1ccc(S(C)(=O)=O)cc1)C1CCN(CC[C@@H](c2cccc(C(F)(F)F)c2)C2CCN(S(C)(=O)=O)CC2)CC1 [Compound 3]	3.55
CS(=O)(=O)c1ccc(CC(=O)N(C2CC2)C2CCN(CC[C@@H](c3cc(F)cc(F)c3)C3CCN(S(C)(=O)=O)CC3)CC2)cc1 [Compound 4]	1.58
